Assay results published in patent US20050096456A1, “Compounds comprising pseudo-amino acids” (priority 2002, published 2005).
Like-named read-outs stand apart in the source and are kept apart here. Residues, ends and D or L forms follow the SMILES beside them. *: point of attachment. Myristoyl = CCCCCCCCCCCCCC(=O)*

Experiment: Solubility of the lyophilised peptide
Assay type: physicochemical
Description: The crude peptide was desalted via gel filtration (Sephadex G10, 0.1% TFA in water) before purification by preparative C18 Vydac) high performance liquid chromatography (HPLC) using 0.1% trifluoroacetic acid and 0.1% trifluoroacetic acid/90% acetonitrile as gradient components. After lyophilisation, the peptide was a white amorphous powder, soluble to at least 10 mg/mL in both dimethylsulfoxide and water. Fast atom bombardment spectrometry gave a main peak at 2101 amu corresponding to the molecular ion of the peptide.

## CCCCCCCCCCCCCC(=O)NCC(=O)N[C@@H](CO)C(=O)N[C@@H](CO)C(=O)N[C@@H](CCCCN)C(=O)N[C@@H](CO)C(=O)N1CCC[C@H]1C(=O)N[C@@H](CO)C(=O)N[C@@H](CCCCN)C(=O)N[C@@H](CCCCN)C(=O)N[C@@H](CC(=O)O)C(=O)N[C@@H](CC(=O)O)C(=O)N[C@@H](CCCCN)C(=O)N[C@@H](CCCCN)C(=O)N1CCC[C@H]1C(=O)NCC(=O)N[C@@H](CC(=O)O)C(=O)N[C@@H](CCCCNC(=O)[C@@H](N)CS)C(N)=O [MSWP2278, Myristoyl-Gly-Ser-Ser-Lys-Ser-Pro-Ser-Lys-Lys-Asp-Asp-Lys-Lys-Pro-Gly-Asp-(E-amino-cysteinyl carboxamide)-Lys-NH2] (Myristoyl-GSSKSPSKKDDKKPGDK(Cys)-NH2)
In dimethylsulfoxide, read-out: solubility in dimethylsulfoxide
  solubility: ≥ 10000 µg/mL
In water, read-out: solubility in water
  solubility: ≥ 10000 µg/mL
